21 compounds from US8901118B2, “Compounds and methods for kinase modulation, and indications therefor” (Plexxikon Inc., priority 2010, dated 2014) can be followed below.

Bounds are passed on as bounds.

The target in one assay is T1, Flt-3 kinase (Homo sapiens, UniProt P36888).
T1 sequence (P36888 27-993): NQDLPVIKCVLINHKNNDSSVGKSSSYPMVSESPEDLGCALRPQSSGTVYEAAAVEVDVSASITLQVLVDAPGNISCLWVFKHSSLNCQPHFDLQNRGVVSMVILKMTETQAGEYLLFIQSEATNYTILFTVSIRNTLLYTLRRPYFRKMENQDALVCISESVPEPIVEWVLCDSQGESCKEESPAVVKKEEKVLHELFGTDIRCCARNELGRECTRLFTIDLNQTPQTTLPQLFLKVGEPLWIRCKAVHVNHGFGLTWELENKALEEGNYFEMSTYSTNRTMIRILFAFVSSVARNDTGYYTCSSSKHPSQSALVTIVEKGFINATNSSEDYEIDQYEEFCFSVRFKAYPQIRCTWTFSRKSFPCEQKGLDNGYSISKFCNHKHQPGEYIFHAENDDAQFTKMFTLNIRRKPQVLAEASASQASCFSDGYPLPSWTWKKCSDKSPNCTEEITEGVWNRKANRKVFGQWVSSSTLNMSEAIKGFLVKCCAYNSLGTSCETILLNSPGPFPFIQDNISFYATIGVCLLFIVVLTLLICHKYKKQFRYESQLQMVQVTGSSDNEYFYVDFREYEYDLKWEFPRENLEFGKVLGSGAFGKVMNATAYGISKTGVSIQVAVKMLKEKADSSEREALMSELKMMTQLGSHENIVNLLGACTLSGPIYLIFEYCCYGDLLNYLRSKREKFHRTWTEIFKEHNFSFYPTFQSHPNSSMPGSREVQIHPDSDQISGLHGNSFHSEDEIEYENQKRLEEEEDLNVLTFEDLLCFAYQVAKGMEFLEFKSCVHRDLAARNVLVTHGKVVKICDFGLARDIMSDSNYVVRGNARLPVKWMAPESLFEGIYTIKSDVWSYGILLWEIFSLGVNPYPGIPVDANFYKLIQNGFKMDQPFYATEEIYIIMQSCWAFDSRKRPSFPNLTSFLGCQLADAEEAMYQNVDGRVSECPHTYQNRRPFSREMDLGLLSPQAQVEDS
The assay can be described thus: Flt-3 kinase biochemical activity assay (AlphaScreen). The settings on record: 100 μM ATP; read-out: Biochemical Inhibition IC50 Flt3. Here is the method: In one assay the biochemical activity IC50 values are determined with respect to inhibition of Flt-3 kinase activity, where inhibition of phosphorylation of a peptide substrate is measured as a function of compound concentration. Compounds to be tested, dissolved in DMSO (1 μL), are added to a white 384-well plate (Costar #3705). Working stocks of Flt-3 kinase (Invitrogen), biotin-(E4Y)10 substrate (Upstate Biotech, Cat#12-440), and ATP (Sigma, Cat#A-3377) are prepared in 25 mM Hepes pH 7.5, 5 mM MgCl2, 5 mM MnCl2, 1 mM DTT, and 0.01% Tween-20. All components are added to the 384-well plate for a final concentration of 1 ng/well Flt-3, 30 nM biotin-(E4Y)10 and 100 μM ATP in a volume of 20 μL. Each sample is at 5% DMSO. The plate is then incubated for 1 hour at room temperature. Just before use, working stocks of donor and acceptor beads from the AlphaScreen PY20 Detection Kit (PerkinElmer, Cat#676601M) are prepared in 25 mM Hepes pH 7.5, pH 7.4, 100 mM EDTA. 0.3% BSA. To stop the reaction, the plate is uncovered in the dark and 5 μL of Donor Beads solution (Streptavidin beads) is added to each well. The plate is incubated at room temperature for 20 minutes. Five microliters of Acceptor Beads solution (PY20 coated beads) are then added to each well. The final concentration of each bead is 10 μg/mL. The plates are incubated at room temperature for 60 minutes. Fluorescence signal is recorded on the Envision reader. Phosphorylated substrate results in binding of the PY20 antibody and association of the donor and acceptor beads such that signal correlates with kinase activity. The signal vs. compound concentration is used to determine the IC50.

A further assay has as its target TrkA kinase (Homo sapiens, UniProt P04629). The assay can be described thus: TrkA kinase biochemical activity assay (AlphaScreen). The settings on record: 100 μM ATP; read-out: Biochemical Inhibition IC50 TrkA. Summed up:
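Recombinant TrkA with 30 nM biotin-(E4Y)10 and 100 μM ATP in 25 mM Hepes pH 7.5, 10 mM MnCl2, 5% DMSO, 40 min at room temperature. Phosphorylation read by AlphaScreen (streptavidin donor, PY20 acceptor beads); IC50 from signal vs compound concentration. TrkC run similarly.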

TrkA kinase, sequence (P04629 33-796): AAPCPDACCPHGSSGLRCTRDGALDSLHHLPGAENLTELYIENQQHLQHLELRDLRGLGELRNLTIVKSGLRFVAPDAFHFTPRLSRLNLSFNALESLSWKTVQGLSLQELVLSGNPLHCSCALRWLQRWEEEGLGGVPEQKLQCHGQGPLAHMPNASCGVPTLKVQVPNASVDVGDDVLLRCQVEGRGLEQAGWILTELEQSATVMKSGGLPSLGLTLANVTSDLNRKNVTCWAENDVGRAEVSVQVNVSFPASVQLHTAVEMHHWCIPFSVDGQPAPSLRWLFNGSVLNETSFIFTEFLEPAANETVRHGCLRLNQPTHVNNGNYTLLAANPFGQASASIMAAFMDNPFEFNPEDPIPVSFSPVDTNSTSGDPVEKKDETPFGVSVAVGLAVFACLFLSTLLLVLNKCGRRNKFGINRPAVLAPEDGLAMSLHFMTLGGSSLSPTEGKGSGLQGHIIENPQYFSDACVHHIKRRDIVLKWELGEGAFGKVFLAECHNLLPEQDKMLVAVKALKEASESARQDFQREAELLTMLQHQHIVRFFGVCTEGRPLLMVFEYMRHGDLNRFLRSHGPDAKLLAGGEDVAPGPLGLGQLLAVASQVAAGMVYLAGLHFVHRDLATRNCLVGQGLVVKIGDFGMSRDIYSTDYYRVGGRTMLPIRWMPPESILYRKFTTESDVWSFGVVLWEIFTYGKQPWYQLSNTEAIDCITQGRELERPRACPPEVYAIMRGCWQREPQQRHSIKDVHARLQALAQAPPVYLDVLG

Consider `COc1ccc(Nc2ncc(Cc3c[nH]c4ncc(C)cc34)cn2)cn1` [Compound P-3020, (6-Methoxy-pyridin-3-yl)-[5-(5-methyl-1H-pyrrolo[2,3-b]pyridin-3-ylmethyl)-pyrimidin-2-yl]-amine], for which the IC50 on Flt-3 kinase was < 10 nM; on TrkA kinase, < 100 nM.

With `CCOc1ccc(Nc2ccc(Cc3c[nH]c4ncnc(OCCOC)c34)c(F)n2)cn1` [Compound P-4008, (6-Ethoxy-pyridin-3-yl)-{6-fluoro-5-[4-(2-methoxy-ethoxy)-7H-pyrrolo[2,3-d]pyrimidin-5-ylmethyl]-pyridin-2-yl}-amine], the concentration for half-maximal inhibition (IC50) at Flt-3 kinase is < 100 nM; at TrkA kinase, < 10 nM.

In the case of `CCOc1ncnc2[nH]cc(C(=O)c3ccc(Nc4ccc(OC)nc4)nc3F)c12` [Compound P-4025, (4-Ethoxy-7H-pyrrolo[2,3-d]pyrimidin-5-yl)-[2-fluoro-6-(6-methoxy-pyridin-3-ylamino)-pyridin-3-yl]-methanone], the values for the half-inhibitory concentration (IC50) on Flt-3 kinase and at TrkA kinase were < 1000 nM and < 100 nM, respectively.

As to `CCOc1ccc(Nc2ccc(C(=O)c3c[nH]c4ncnc(C5CC5)c34)c(F)n2)cn1` [Compound P-4027, (4-Cyclopropyl-7H-pyrrolo[2,3-d]pyrimidin-5-yl)-[6-(6-ethoxy-pyridin-3-ylamino)-2-fluoro-pyridin-3-yl]-methanone], the IC50 at Flt-3 kinase and at TrkA kinase was < 10 nM throughout.

As to `CCOc1ccc(Nc2ccc(C(=O)c3c[nH]c4ncnc(C)c34)c(F)n2)cn1` [Compound P-4032, [6-(6-Ethoxy-pyridin-3-ylamino)-2-fluoro-pyridin-3-yl]-(4-methyl-7H-pyrrolo[2,3-d]pyrimidin-5-yl)-methanone], the IC50 at Flt-3 kinase and at TrkA kinase was < 100 nM in each case.

Turning to `CCc1ccc(Nc2ccc(Cc3c[nH]c4ncnc(C)c34)c(F)n2)cn1` [Compound P-4009, (6-Ethyl-pyridin-3-yl)-[6-fluoro-5-(4-methyl-7H-pyrrolo[2,3-d]pyrimidin-5-ylmethyl)-pyridin-2-yl]-amine], the results for the IC50 on Flt-3 kinase and on TrkA kinase were < 100 nM and < 10 nM, respectively.

Consider `COc1ccc(Nc2ccc(Cc3c[nH]c4ncnc(C5CC5)c34)c(F)n2)cn1` [Compound P-4023, [5-(4-cyclopropyl-7H-pyrrolo[2,3-d]pyrimidin-5-ylmethyl)-6-fluoro-pyridin-2-yl]-(6-methoxy-pyridin-3-yl)-amine], for which the half-inhibitory concentration (IC50) is < 1000 nM at Flt-3 kinase and < 100 nM on TrkA kinase.

For the compound `CCn1cc(Nc2ccc(Cc3c[nH]c4ncnc(C5CC5)c34)c(F)n2)cn1` [Compound P-4036, [5-(4-Cyclopropyl-7H-pyrrolo[2,3-d]pyrimidin-5-ylmethyl)-6-fluoro-pyridin-2-yl]-(1-ethyl-1H-pyrazol-4-yl)-amine], the half-maximal inhibitory concentration (IC50) on Flt-3 kinase was > 1000 nM; at TrkA kinase it was < 100 nM.

For `COc1ccc(Nc2ccc(C(=O)c3c[nH]c4ncc(C)cc34)c(F)n2)cn1` [Compound P-3040, [2-Fluoro-6-(6-methoxy-pyridin-3-ylamino)-pyridin-3-yl]-(5-methyl-1H-pyrrolo[2,3-b]pyridin-3-yl)-methanone], the results for the IC50 on Flt-3 kinase and at TrkA kinase were < 100 nM and < 10 nM, respectively.

Consider `CCOc1ccc(Nc2ccc(Cc3c[nH]c4ncc(C)cc34)c(F)n2)cn1` [Compound P-3039, (6-ethoxy-pyridin-3-yl)-[6-fluoro-5-(5-methyl-1H-pyrrolo[2,3-b]pyridin-3-ylmethyl)-pyridin-2-yl]-amine], for which the IC50 at Flt-3 kinase and on TrkA kinase was < 100 nM each time.

`CCn1cc(Nc2ncc(Cc3c[nH]c4ncc(C)cc34)cn2)cn1` [Compound P-3036, (1-Ethyl-1H-pyrazol-4-yl)-[5-(5-methyl-1H-pyrrolo[2,3-b]pyridin-3-ylmethyl)-pyrimidin-2-yl]-amine]: the IC50 on Flt-3 kinase was < 100 nM; on TrkA kinase, < 1000 nM.

On to `CCOc1ccc(Nc2ncc(Cc3c[nH]c4ncc(C)cc34)cn2)cc1` [Compound P-3026, (4-Ethoxy-phenyl)-[5-(5-methyl-1H-pyrrolo[2,3-b]pyridin-3-ylmethyl)-pyrimidin-2-yl]-amine], for which the IC50 at Flt-3 kinase was < 100 nM; on TrkA kinase, > 1000 nM.

For `COc1cc(Nc2ncc(Cc3c[nH]c4ncc(C)cc34)cn2)ccc1F` [Compound P-3022, (4-Fluoro-3-methoxy-phenyl)-[5-(5-methyl-1H-pyrrolo[2,3-b]pyridin-3-ylmethyl)-pyrimidin-2-yl]-amine], the IC50 on Flt-3 kinase was < 100 nM; at TrkA kinase, < 1000 nM.

For `CCOc1ncnc2[nH]cc(Cc3ccc(Nc4ccc(OC)nc4)nc3F)c12` [Compound P-4018, [5-(4-Ethoxy-7H-pyrrolo[2,3-d]pyrimidin-5-ylmethyl)-6-fluoro-pyridin-2-yl]-(6-methoxy-pyridin-3-yl)-amine], the half-maximal inhibitory concentration (IC50) on Flt-3 kinase and at TrkA kinase was < 100 nM throughout.

Turning to `CCc1ccc(Nc2ccc(Cc3c[nH]c4ncnc(C5CC5)c34)c(F)n2)cn1` [Compound P-4028, [5-(4-Cyclopropyl-7H-pyrrolo[2,3-d]pyrimidin-5-ylmethyl)-6-fluoro-pyridin-2-yl]-(6-ethyl-pyridin-3-yl)-amine], the figures for the half-maximal inhibitory concentration (IC50) on Flt-3 kinase and at TrkA kinase were < 100 nM and < 10 nM, respectively.

With `CCn1cc(Nc2ccc(C(=O)c3c[nH]c4ncnc(C5CC5)c34)c(F)n2)cn1` [Compound P-4037, (4-Cyclopropyl-7H-pyrrolo[2,3-d]pyrimidin-5-yl)-[6-(1-ethyl-1H-pyrazol-4-ylamino)-2-fluoro-pyridin-3-yl]-methanone], the IC50 on Flt-3 kinase was < 1000 nM; on TrkA kinase it was < 100 nM.

As to `Cc1ccc(Nc2ccc(C(=O)c3c[nH]c4ncnc(C5CC5)c34)c(F)n2)cn1` [Compound P-4031, (4-Cyclopropyl-7H-pyrrolo[2,3-d]pyrimidin-5-yl)-[2-fluoro-6-(6-methyl-pyridin-3-ylamino)-pyridin-3-yl]-methanone], the 50% inhibitory concentration (IC50) on Flt-3 kinase and on TrkA kinase was < 100 nM throughout.

Regarding `Fc1cccc(Nc2ncc(Cc3c[nH]c4ncc(Cl)cc34)cn2)c1` [Compound P-3017, [5-(5-Chloro-1H-pyrrolo[2,3-b]pyridin-3-ylmethyl)-pyrimidin-2-yl]-(3-fluoro-phenyl)-amine], the 50% inhibitory concentration (IC50) on Flt-3 kinase was < 100 nM; at TrkA kinase, > 1000 nM.

Consider `CCOc1ccc(Nc2ncc(Cc3c[nH]c4ncc(C)cc34)cn2)cn1` [Compound P-3027, (6-Ethoxy-pyridin-3-yl)-[5-(5-methyl-1H-pyrrolo[2,3-b]pyridin-3-ylmethyl)-pyrimidin-2-yl]-amine], for which the half-maximal inhibitory concentration (IC50) was < 10 nM on Flt-3 kinase and < 1000 nM on TrkA kinase.

Consider `CCn1cc(Nc2ccc(Cc3c[nH]c4ncnc(C)c34)c(F)n2)cn1` [Compound P-4013, (1-Ethyl-1H-pyrazol-4-yl)-[6-fluoro-5-(4-methyl-7H-pyrrolo[2,3-d]pyrimidin-5-ylmethyl)-pyridin-2-yl]-amine], for which the 50% inhibitory concentration (IC50) on Flt-3 kinase is > 1000 nM; on TrkA kinase, < 1000 nM.

Take `COCCOc1ncnc2[nH]cc(Cc3ccc(Nc4ccc(OC)nc4)nc3F)c12` [Compound P-4019, {6-Fluoro-5-[4-(2-methoxy-ethoxy)-7H-pyrrolo[2,3-d]pyrimidin-5-ylmethyl]-pyridin-2-yl}-(6-methoxy-pyridin-3-yl)-amine]: the 50% inhibitory concentration (IC50) on Flt-3 kinase and at TrkA kinase was < 100 nM each time.
